Here are results for 6 molecules from article PMC2964301, “Human α3β4 Neuronal Nicotinic Receptors Show Different Stoichiometry if They Are Expressed in Xenopus Oocytes or Mammalian HEK293 Cells” (PLoS ONE, 2010).

Each structure is given as a SMILES string.

Holding throughout (format): cell-based
Test [1] has as its target T1, human α3β4 nicotinic receptor in Xenopus oocytes, 9:1 α:β cRNA (putative three-α form) (Homo sapiens, UniProt P30926+P32297).
T1 construct: gene CHRNA3; untagged; Xenopus laevis oocytes, 9:1 α:β cRNA; heteropentamer, putative (α3)3(β4)2
In words: two-electrode voltage clamp, extrapolated from low-concentration potency ratio. Particulars: agonist, unreliable (extrapolated assuming identical efficacy to ACh).

For test [2], the target named is T2, human α3β4 nicotinic receptor in Xenopus oocytes, 1:9 α:β cRNA (putative two-α form) (Homo sapiens, UniProt P30926+P32297).
T2 construct: gene CHRNA3; untagged; Xenopus laevis oocytes, 1:9 α:β cRNA; heteropentamer, putative (α3)2(β4)3
The description is as above. The following applies: agonist, unreliable (extrapolated assuming identical efficacy to ACh).
Target sequence in this assay (P30926 22-498): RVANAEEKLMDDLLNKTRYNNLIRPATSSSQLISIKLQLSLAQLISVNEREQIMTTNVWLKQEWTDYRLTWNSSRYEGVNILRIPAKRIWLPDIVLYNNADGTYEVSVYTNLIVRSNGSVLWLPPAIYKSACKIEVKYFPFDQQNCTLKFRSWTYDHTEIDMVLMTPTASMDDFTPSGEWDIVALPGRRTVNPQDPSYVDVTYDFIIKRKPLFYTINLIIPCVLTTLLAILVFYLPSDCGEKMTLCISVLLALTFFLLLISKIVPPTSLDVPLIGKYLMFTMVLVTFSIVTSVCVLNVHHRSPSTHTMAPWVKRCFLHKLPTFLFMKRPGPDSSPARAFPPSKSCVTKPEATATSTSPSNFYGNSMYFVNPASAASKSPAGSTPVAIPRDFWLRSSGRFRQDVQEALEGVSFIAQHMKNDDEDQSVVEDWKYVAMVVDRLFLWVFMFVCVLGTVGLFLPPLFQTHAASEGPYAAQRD
Target sequence in this assay (P32297 32-505): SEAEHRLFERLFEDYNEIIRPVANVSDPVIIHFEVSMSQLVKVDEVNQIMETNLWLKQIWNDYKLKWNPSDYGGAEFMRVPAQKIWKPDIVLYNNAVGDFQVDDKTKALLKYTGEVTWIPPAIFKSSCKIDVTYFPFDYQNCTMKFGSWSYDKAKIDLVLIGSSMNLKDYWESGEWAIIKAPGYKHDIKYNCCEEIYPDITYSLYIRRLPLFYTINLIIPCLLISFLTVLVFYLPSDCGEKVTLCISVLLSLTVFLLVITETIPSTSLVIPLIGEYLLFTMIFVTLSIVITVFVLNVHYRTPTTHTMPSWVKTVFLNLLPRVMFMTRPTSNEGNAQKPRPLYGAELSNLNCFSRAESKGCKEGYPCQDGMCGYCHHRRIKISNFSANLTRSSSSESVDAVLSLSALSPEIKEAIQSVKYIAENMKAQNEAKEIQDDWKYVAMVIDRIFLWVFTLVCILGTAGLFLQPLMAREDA

For test [3], the target named is T2, human α3β4 nicotinic receptor in Xenopus oocytes, 1:9 α:β cRNA (putative two-α form). In words: two-electrode voltage clamp, partial dose-response curves. The following applies: agonist, -70 mV, pH 7.2, nominally Ca-free, 0.5 µM atropine, 18°C, low concentrations. An excerpt: two-electrode voltage clamp, partial dose-response curves on human α3β4 nicotinic receptor in Xenopus oocytes, 1:9 α:β cRNA (putative two-α form)
For orientation: In two-electrode clamp one electrode senses voltage and the other passes current.

T1 sequence (P30926 22-498): as the sequence (P30926 22-498) above
T1 sequence (P32297 32-505): as the sequence (P32297 32-505) above

On to `C[N+]1(C)CCN(c2ccccc2)CC1` [DMPP, 1,1-dimethyl-4-phenylpiperazinium iodide], for which the “EC 50” value is on record as ~ 30 µM in test [1] and ~ 140 µM in test [2].

Consider `C[N+](C)(C)CCOC(N)=O` [carbachol], for which the Potency ratio in test [3] came to 0.094±0.003. With `O=c1cccc2n1C[C@@H]1CNC[C@H]2C1` [cytisine], in test [3], the Potency ratio was 1.40±0.15. As for `Clc1ccc(C2CC3CCC2N3)cn1` (stereo not shown) [epibatidine], the Potency ratio in test [3] is 6290±815.

On to `CN1[C@@H](CC(=O)c2ccccc2)CCC[C@H]1C[C@H](O)c1ccccc1` [lobeline], for which the Potency ratio in test [3] was 7.35±0.56. For the molecule `CN1CCC[C@H]1c1cccnc1` [nicotine], the Potency ratio in test [3] is 1.43±0.14.
